Values of other authors, collected in patent publication US6334999B1, “Liposomal aerosols for delivery of chemotherapeutic retinoids to the lungs” (Research Development Foundation, priority 1999, dated 2002).

Conditions: mouse, in vivo

SMILES: CC1=C(/C=C/C(C)=C/C=C/C(C)=C/C(=O)O)C(C)(C)CCC1 [free ATRA, all-trans-retinoic acid]
- dose exerting toxic effects: 25-30 mg/kg of body weight
